Assay results from ChEMBL document CHEMBL1150808, “General behavior, toxicity, and cytotoxic activity of elenoside, a lignan from Justicia hyssopifolia” (J Nat Prod, 2001).

Assays:
Mus musculus [1] = species on record: Mus musculus; assay: Toxicity in Swiss albino mouse assessed as reduction in sensory-motor response by Irwin test; format: organism-based; details: in vivo
Mus musculus [2] = species on record: Mus musculus; assay: Toxicity in Swiss albino mouse assessed as reduction in spontaneous activity after 60 mins by Irwin test; format: organism-based; details: in vivo, 1 h
M19-MEL [3] = assay: Growth inhibition of human M19-MEL cells; format: functional
Mus musculus [4] = species on record: Mus musculus; assay: Toxicity in Swiss albino mouse assessed as loss of hypotonic gait after 30 mins by Irwin test; format: organism-based; details: in vivo, 0.5 h
UO-31 [5] = assay: Growth inhibition of human UO31 cells at 100 uM; format: functional; details: read-out: GI
MOLT-4 [6] = assay: Growth inhibition of human MOLT4 cells; format: functional
Mus musculus [7] = species on record: Mus musculus; assay: Toxicity in Swiss albino mouse assessed as reduction in muscular tone after 180 mins by Irwin test; format: organism-based; details: in vivo, 3 h
MOLT-4 [8] = assay: Growth inhibition of human MOLT4 cells at 100 uM; format: functional; details: read-out: GI
K562 [9] = assay: Growth inhibition of human K562 cells at 100 uM; format: functional; details: read-out: GI
HCT-116 [10] = assay: Growth inhibition of human HCT116 cells; format: functional
SF-268 [11] = assay: Growth inhibition of human SF268 cells; format: functional
Mus musculus [12] = assay: Toxicity in Swiss albino mouse assessed as loss of righting reflex at 25 mg/kg, ip after 1 hr by Lim test; format: organism-based; design: dose 25 mg/kg, route intraperitoneal; details: in vivo
Mus musculus [13] = species on record: Mus musculus; assay: Toxicity in Swiss albino mouse assessed as reduction in equilibrium after 180 mins by Irwin test; format: organism-based; details: in vivo, 3 h
Mus musculus [14] = species on record: Mus musculus; assay: Toxicity in Swiss albino mouse assessed as loss of righting reflex after 30 mins by Irwin test; format: organism-based; details: in vivo, 0.5 h
UACC-257 [15] = assay: Growth inhibition of human UACC257 cells at 100 uM; format: functional; details: read-out: GI
SK-MEL-2 [16] = assay: Growth inhibition of human SK-MEL-2 cells; format: functional
SNB-19 [17] = assay: Growth inhibition of human SNB19 cells at 100 uM; format: functional; details: read-out: GI
CCRF-CEM [18] = assay: Growth inhibition of human CCRF-CEM cells at 100 uM; format: functional; details: read-out: GI
DMS-273 [19] = assay: Growth inhibition of human DMS273 cells; format: functional
Mus musculus [20] = species on record: Mus musculus; assay: Toxicity in Swiss albino mouse assessed as reduction in tremors by Irwin test; format: organism-based; details: in vivo
SNB-75 [21] = assay: Growth inhibition of human SNB75 cells; format: functional
OVCAR-4 [22] = assay: Growth inhibition of human OVCAR4 cells at 100 uM; format: functional; details: read-out: GI
SK-MEL-5 [23] = assay: Growth inhibition of human SK-MEL-5 cells; format: functional
OVCAR-3 [24] = assay: Growth inhibition of human OVCAR-3 cells; format: functional
KM12 [25] = assay: Growth inhibition of human KM12 cells at 100 uM; format: functional; details: read-out: GI
NCI-H226 [26] = assay: Growth inhibition of human NCI-H226 cells; format: functional
Mus musculus [27] = species on record: Mus musculus; assay: Toxicity in Swiss albino mouse assessed as reduction in convulsions by Irwin test; format: organism-based; details: in vivo
NCI-H23 [28] = assay: Growth inhibition of human NCI-H23 cells at 100 uM; format: functional; details: read-out: GI
Mus musculus [29] = assay: Toxicity in Swiss albino mouse assessed as loss of spontaneous movement at 50 mg/kg, ip after 1 hr by Lim test; format: organism-based; design: dose 50 mg/kg, route intraperitoneal; details: in vivo
Mus musculus [30] = assay: Toxicity in Swiss albino mouse assessed as loss of muscle tone at 50 mg/kg, ip after 1 hr by Lim test; format: organism-based, Muscle tissue; design: dose 50 mg/kg, route intraperitoneal; details: in vivo
UO-31 [31] = assay: Growth inhibition of human UO31 cells; format: functional
SNB-75 [32] = assay: Growth inhibition of human SNB75 cells at 100 uM; format: functional; details: read-out: GI
NCI-H522 [33] = assay: Growth inhibition of human NCI-H522 cells; format: functional
NCI-H226 [34] = assay: Growth inhibition of human NCI-H226 cells at 100 uM; format: functional; details: read-out: GI
Mus musculus [35] = assay: Toxicity in Swiss albino mouse assessed as loss of muscle tone at 10 mg/kg, ip after 1 hr by Lim test; format: organism-based, Muscle tissue; design: dose 10 mg/kg, route intraperitoneal; details: in vivo
SK-MEL-2 [36] = assay: Growth inhibition of human SK-MEL-2 cells at 100 uM; format: functional; details: read-out: GI
[37] = Toxicity in Swiss albino mouse assessed as death after 5 days assessed after 24 hrs post treatment by Irwin test; format: organism-based; details: in vivo
Mus musculus [38] = species on record: Mus musculus; assay: Toxicity in Swiss albino mouse assessed as reduction in motor affective response by Irwin test; format: organism-based; details: in vivo
RPMI-8226 [39] = assay: Growth inhibition of human RPMI8226 cells at 100 uM; format: functional; details: read-out: GI
UACC-257 [40] = assay: Growth inhibition of human UACC257 cells; format: functional
RPMI-8226 [41] = assay: Growth inhibition of human RPMI8226 cells; format: functional
HCC 2998 [42] = assay: Growth inhibition of human HCC2998 cells; format: functional
KM12 [43] = assay: Growth inhibition of human KM12 cells; format: functional
HCT-116 [44] = assay: Growth inhibition of human HCT116 cells at 100 uM; format: functional; details: read-out: GI
OVCAR-3 [45] = assay: Growth inhibition of human OVCAR-3 cells at 100 uM; format: functional; details: read-out: GI
M19-MEL [46] = assay: Growth inhibition of human M19-MEL cells at 100 uM; format: functional; details: read-out: GI
OVCAR-4 [47] = assay: Growth inhibition of human OVCAR4 cells; format: functional
Mus musculus [48] = assay: Toxicity in Swiss albino mouse assessed as loss of muscle tone at 25 mg/kg, ip after 1 hr by Lim test; format: organism-based, Muscle tissue; design: dose 25 mg/kg, route intraperitoneal; details: in vivo
Mus musculus [49] = assay: Toxicity in Swiss albino mouse assessed as loss of righting reflex at 50 mg/kg, ip after 1 hr by Lim test; format: organism-based; design: dose 50 mg/kg, route intraperitoneal; details: in vivo
DMS-273 [50] = assay: Growth inhibition of human DMS273 cells at 100 uM; format: functional; details: read-out: GI
K562 [51] = assay: Growth inhibition of human K562 cells; format: functional
Mus musculus [52] = species on record: Mus musculus; assay: Toxicity in Swiss albino mouse assessed as loss of sight after 30 mins by Irwin test; format: organism-based; details: in vivo, 0.5 h
Mus musculus [53] = assay: Toxicity in Swiss albino mouse assessed as loss of spontaneous movement at 10 mg/kg, ip after 1 hr by Lim test; format: organism-based; design: dose 10 mg/kg, route intraperitoneal; details: in vivo
HCC 2998 [54] = assay: Growth inhibition of human HCC2998 cells at 100 uM; format: functional; details: read-out: GI
Mus musculus [55] = assay: Toxicity in Swiss albino mouse assessed as loss of spontaneous movement at 25 mg/kg, ip after 1 hr by Lim test; format: organism-based; design: dose 25 mg/kg, route intraperitoneal; details: in vivo
Mus musculus [56] = species on record: Mus musculus; assay: Toxicity in Swiss albino mouse assessed as involvement of autonomic nervous system; format: organism-based; details: in vivo
Mus musculus [57] = species on record: Mus musculus; assay: Toxicity in Swiss albino mouse assessed as reduction in twitches by Irwin test; format: organism-based; details: in vivo
SNB-19 [58] = assay: Growth inhibition of human SNB19 cells; format: functional
SK-MEL-5 [59] = assay: Growth inhibition of human SK-MEL-5 cells at 100 uM; format: functional; details: read-out: GI
Mus musculus [60] = assay: Toxicity in Swiss albino mouse assessed as loss of righting reflex at 10 mg/kg, ip after 1 hr by Lim test; format: organism-based; design: dose 10 mg/kg, route intraperitoneal; details: in vivo
CCRF-CEM [61] = assay: Growth inhibition of human CCRF-CEM cells; format: functional
SF-268 [62] = assay: Growth inhibition of human SF268 cells at 100 uM; format: functional; details: read-out: GI
NCI-H522 [63] = assay: Growth inhibition of human NCI-H522 cells at 100 uM; format: functional; details: read-out: GI
NCI-H23 [64] = assay: Growth inhibition of human NCI-H23 cells

## O=C1OCc2c1cc1ccc(O)c(O[C@@H]3O[C@H](CO)[C@@H](O)[C@H](O)[C@H]3O)c1c2-c1ccc2c(c1)OCO2 [ELENOSIDE]
Mus musculus [1]
  Activity: Dose-dependent effect
Mus musculus [2]
  Activity: Toxic
M19-MEL [3]
  GI50: 38.2 µM
Mus musculus [4]
  Activity: Toxic
UO-31 [5]
  inhibition of growth at 100 µM: 80%
MOLT-4 [6]
  GI50: 34.3 µM
Mus musculus [7]
  Activity: Dose-dependent effect
MOLT-4 [8]
  inhibition of growth at 100 µM: 88%
K562 [9]
  inhibition of growth at 100 µM: 79%
HCT-116 [10]
  GI50: 39.7 µM
SF-268 [11]
  GI50: 57.1 µM
Mus musculus [12]
  Activity: 20%
Mus musculus [13]
  Activity: Toxic
Mus musculus [14]
  Activity: Toxic
UACC-257 [15]
  inhibition of growth at 100 µM: 72%
SK-MEL-2 [16]
  GI50: 33.5 µM
SNB-19 [17]
  inhibition of growth at 100 µM: 81%
CCRF-CEM [18]
  inhibition of growth at 100 µM: 84%
DMS-273 [19]
  GI50: 47.5 µM
Mus musculus [20]
  Activity: Non-toxic
SNB-75 [21]
  GI50: 55.2 µM
OVCAR-4 [22]
  inhibition of growth at 100 µM: 66%
SK-MEL-5 [23]
  GI50: 26.2 µM
OVCAR-3 [24]
  GI50: 64.6 µM
KM12 [25]
  inhibition of growth at 100 µM: 77%
NCI-H226 [26]
  GI50: 48.4 µM
Mus musculus [27]
  Activity: Non-toxic
NCI-H23 [28]
  inhibition of growth at 100 µM: 72%
Mus musculus [29]
  Activity: 60%
Mus musculus [30]
  Activity: 60%
UO-31 [31]
  GI50: 27.2 µM
SNB-75 [32]
  inhibition of growth at 100 µM: 66%
NCI-H522 [33]
  GI50: 22.6 µM
NCI-H226 [34]
  inhibition of growth at 100 µM: 72%
Mus musculus [35]
  Activity: 90%
SK-MEL-2 [36]
  inhibition of growth at 100 µM: 84%
[37]
  LD50 at 5 days: 3.05 mg/kg
Mus musculus [38]
  Activity: Dose-dependent effect
RPMI-8226 [39]
  inhibition of growth at 100 µM: 97%
UACC-257 [40]
  GI50: 37.9 µM
RPMI-8226 [41]
  GI50: 34.6 µM
HCC 2998 [42]
  GI50: 38.2 µM
KM12 [43]
  GI50: 23.4 µM
HCT-116 [44]
  inhibition of growth at 100 µM: 77%
OVCAR-3 [45]
  inhibition of growth at 100 µM: 60%
M19-MEL [46]
  inhibition of growth at 100 µM: 81%
OVCAR-4 [47]
  GI50: 56.2 µM
Mus musculus [48]
  Activity: 50%
Mus musculus [49]
  Activity: 20%
DMS-273 [50]
  inhibition of growth at 100 µM: 67%
K562 [51]
  GI50: 39.5 µM
Mus musculus [52]
  Activity: Toxic
Mus musculus [53]
  Activity: 90%
HCC 2998 [54]
  inhibition of growth at 100 µM: 87%
Mus musculus [55]
  Activity: 50%
Mus musculus [56]
  Activity: Toxic
Mus musculus [57]
  Activity: Non-toxic
SNB-19 [58]
  GI50: 36 µM
SK-MEL-5 [59]
  inhibition of growth at 100 µM: 114%
Mus musculus [60]
  Activity: 40%
CCRF-CEM [61]
  GI50: 34.9 µM
SF-268 [62]
  inhibition of growth at 100 µM: 70%
NCI-H522 [63]
  inhibition of growth at 100 µM: 126%
NCI-H23 [64]
  GI50: 47.5 µM
